Here are results for 6 compounds from patent publication US6696458B2 (Super Gen, Inc., priority 2002, dated 2004).

The conditions of series [1]: solubilized by sodium hydroxide in water; cited from earlier work.
Series [2] is described as follows: Moisture sorption/desorption on VTI SGA-100 moisture balance. The class given is physicochemical. To be noted: for hygroscopicity: judged from sorption 5 to 95% RH. From the text:
The samples were not dried prior to analysis.

Series [3] deals with human colon cancer xenografts. To be noted: cited from earlier work.
Series [4] is described as follows: Dehydration/desolvation under vacuum, XRPD comparison. It is filed as physicochemical. From the text: The characterization of this weight loss as THF solvent is supported by the ^1H NMR data.
Series [5] is described as follows: Storage in closed vial at ambient conditions, XRPD comparison. It is filed as physicochemical. The conditions noted are these: 31 days.

As to `CC[C@@](O)(C(=O)[O-])c1cc2n(c(=O)c1CO)Cc1cc3ccccc3nc1-2.[Na+]` [Sodium camptothecin], the “antineoplastic activity in clinical trials” value in series [1] was “antineoplastic activity”.
As to `CC[C@@]1(O)C(=O)OCc2c1cc1n(c2=O)Cc2cc3c([N+](=O)[O-])cccc3nc2-1` [Form A, 9-nitrocamptothecin], in series [2] (5 to 95% RH), the “total weight gained in the region from 5 to 95% RH” value is “about 0.03%”. Also, the Weight % chg in series [2] (desorption, RH 4.83 %, 25.03 deg C, elapsed 157.3 min) came to 0.0275%; in series [2] (desorption, RH 15.00 %, 25.03 deg C, elapsed 150.3 min), 0.0307%; in series [2] (desorption, RH 24.95 %, 25.02 deg C, elapsed 143.3 min) it was 0.0324%; in series [2] (desorption, RH 34.97 %, 25.02 deg C, elapsed 135.8 min), 0.0348%; in series [2] (desorption, RH 45.05 %, 25.02 deg C, elapsed 127.8 min), 0.0372%; in series [2] (desorption, RH 54.99 %, 25.02 deg C, elapsed 119.8 min) it was 0.0381%. Moreover, the Weight % chg in series [2] (desorption, RH 65.02 %, 25.02 deg C, elapsed 111.8 min) is on record as 0.0405%; in series [2] (desorption, RH 75.18 %, 25.03 deg C, elapsed 103.8 min), 0.0429%; in series [2] (desorption, RH 84.95 %, 25.03 deg C, elapsed 94.8 min), 0.0429%; in series [2] (sorption, RH 5.16 %, 25.02 deg C, elapsed 11.1 min), 0.0131%; in series [2] (sorption, RH 15.27 %, 25.02 deg C, elapsed 19.6 min) it was 0.0149%; in series [2] (sorption, RH 24.98 %, 25.03 deg C, elapsed 27.2 min), 0.0169%. For the same compound, the Weight % chg in series [2] (sorption, RH 35.07 %, 25.03 deg C, elapsed 34.7 min) turned out to be 0.0210%; in series [2] (sorption, RH 45.07 %, 25.03 deg C, elapsed 42.2 min) it was 0.0242%; in series [2] (sorption, RH 55.00 %, 25.03 deg C, elapsed 50.2 min) it was 0.0283%; in series [2] (sorption, RH 64.96 %, 25.03 deg C, elapsed 59.2 min), 0.0315%; in series [2] (sorption, RH 74.75 %, 25.03 deg C, elapsed 68.3 min) it was 0.0347%; in series [2] (sorption, RH 84.64 %, 25.03 deg C, elapsed 77.3 min), 0.0387%. In addition, the Weight % chg in series [2] (sorption, RH 94.90 %, 25.03 deg C, elapsed 86.3 min) was 0.0421%; in series [2] (start, RH 14.41 %, 24.99 deg C, elapsed 0.0 min) it was 0.0000%. Further, the “water gained upon equilibration to 5% RH” value in series [2] (equilibration to 5% RH) was 0.01%. Further, the hygroscopicity entry in series [2] is given as “not hygroscopic”.
For `CC[C@@]1(O)C(=O)OCc2c1cc1n(c2=O)Cc2cc3cc4c(cc3nc2-1)OCO4` [10,11, MD, 10,11-methylendioxy-20(S)-camptothecin], in series [3], the anticancer activity result is reported as “high anticancer activity”.
In the case of `CC[C@@]1(O)C(=O)OCc2c1cc1n(c2=O)Cc2cc3c(N)cccc3nc2-1` [Form 9AC, 9-Amino-20(S)-Camptothecin], the anticancer activity result in series [3] is recorded as “high anticancer activity”.
Take `CC[C@@]1(O)C(=O)OCc2c1cc1n(c2=O)Cc2cc3c([N+](=O)[O-])cccc3nc2-1` [Form C, 9-nitrocamptothecin]: the “form change on attempted desolvation” value in series [4] is on record as “becomes amorphous”.
Take `CC[C@@]1(O)C(=O)OCc2c1cc1n(c2=O)Cc2cc3c([N+](=O)[O-])cccc3nc2-1` [Form B, 9-nitrocamptothecin]: the hygroscopicity result in series [2] is listed as “relatively hygroscopic”. Further, in series [2] (start, RH 9.87 %, 25.03 deg C, elapsed 0.0 min), the Weight % chg came out at 0.0000%. In addition, the “stability of crystalline form on storage (XRPD pattern unchanged)” value in series [5] is recorded as “relatively stable”.
